Data set [1] has as its system HEK293/Cytochrome C-tGFP cell line. Briefly: Apoptosis assay, Cytochrome C-tGFP localization by confocal microscopy. The settings on record: 200 μM, 24 h. Type of data set: cell-based. The source says: Identification of genes linked to familiar forms of PD have uncovered many molecular pathways involved in neurodegeneration. One of such genes is PTEN-induced kinase 1 (PINK1), a mitochondrial serine/threonine-protein kinase that protects cells from stress-induced mitochondrial dysfunction. […] In fact, PINK1 is the second most frequent causative gene in early-onset PD, where mutations in this gene cause an autosomal recessive form of the disease. Frequent missense or truncating mutations of PINK1 are implicated in the pathogenesis of PARK6 (familial type 6 of PD). […] Therefore, the release of Cytochrome C from damaged mitochondria is considered a central event in apoptotic signaling. To characterize the ability of Pegasus (D9) to induce mitochondrial damage and apoptosis, as assayed by the release of Cytochrome C from mitochondria, a transgenic Cytochrome C-tGFP HEK293 cell line was used (INNOPROT #P30801) (Goldstein J C, Muñoz-Pinedo C, Ricci J E, et al. Cytochrome C is released in a single step during apoptosis. Cell Death Differ 2005; 12(5): 453-62).
The effect of Pegasus on the localization and distribution of mitochondrial Cytochrome C-tGFP was visualized by confocal microscopy after incubation with 200 μM of D9 for 24 hs in the HEK293/Cytochrome C-tGFP cell line (INNOPROT #P30801). Images were acquired in a ZEISS LSM800 Confocal Microscope.

Data set [2] relates to IL-1β release in Bv2 cells. Description: IL-1β release in LPS-stimulated microglial cells (ELISA). It is filed as cell-based, murine. As for the experimental part:
To evaluate the effect of Pegasus on LPS-activated microglia, Bv2 cells were pretreated with Pegasus (D9) (200 μM). After 4 h of treatment, cells were stimulated with LPS (10 μg/mL, final concentration) during 24 h. Doxycycline (Doxy) (200 μM) and Dexamethasone (Dexa) (200 μM) were used as a positive control of anti-inflammatory effects. IL-1β cytokine concentration was measured by ELISA assays (Mouse IL-1 beta ELISA Kit, Cat #BMS6002, Invitrogen), according to instructions provided by the manufacturer.
On the technique in general: An ELISA detects its analyte on a solid surface through an enzyme-linked reagent.

The target of the next data set is D1 dopamine receptor (Homo sapiens, UniProt P21728). Description: D1 receptor agonist assay, cAMP Nomad biosensor, HEK_cAMPNmd_FP650_D1 cells.
Sequence of D1 dopamine receptor (P21728 whole entry): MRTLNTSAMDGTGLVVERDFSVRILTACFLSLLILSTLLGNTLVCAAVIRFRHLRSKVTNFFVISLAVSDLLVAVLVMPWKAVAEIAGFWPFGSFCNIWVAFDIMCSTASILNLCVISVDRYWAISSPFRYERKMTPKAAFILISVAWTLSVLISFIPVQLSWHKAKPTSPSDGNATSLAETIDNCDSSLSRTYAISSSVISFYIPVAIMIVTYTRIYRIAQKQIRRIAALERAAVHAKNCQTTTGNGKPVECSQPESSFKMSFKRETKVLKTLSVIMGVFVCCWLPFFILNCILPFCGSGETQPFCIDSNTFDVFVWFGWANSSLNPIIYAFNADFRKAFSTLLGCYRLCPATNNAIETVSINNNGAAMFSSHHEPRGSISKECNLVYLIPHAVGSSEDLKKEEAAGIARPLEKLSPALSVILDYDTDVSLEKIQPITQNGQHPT
In a further data set the target is D2 dopamine receptor (Homo sapiens, UniProt P14416). Briefly: D2 receptor agonist assay, cAMP Nomad biosensor, U2OS_cAMPNmd_FP650_D2 cells. It is filed as cell-based. The settings on record: 24 h, 10 serial 1:3 dilutions from 30 μM, triplicate; read-out: EC50, D2 receptor activation. As for the experimental part:
HEK_cAMPNmd_FP650_D1 and U2OS_cAMPNmd_FP650_D2 cells were seeded at a density of 30.000 and 20.000 cells/well, respectively, in 96-well plates. Cells were maintained in DMEM or DMEM-F12 medium supplemented with 10% FBS during 24 h at 37° C. in a humidified 5% CO2 atmosphere.
Cells were then incubated for 24 h.
To detect Nomad biosensor activation, the assay medium was removed and replaced by […] of DPBS with calcium and magnesium. […] In U2OS_cAMPNmd_FP650_D2 cells, images were acquired using the CellInsight CX7 HCS Platform, and the number of fluorescent vesicles per cell was quantified with the HCS Studio Cell Analysis Software.
The effect of the compounds in the regulation of D1 or D2 receptors' activation was analyzed measuring the CAMP signaling using the Nomad biosensor-based assay.
This same experiment was carried out in the U2OS_cAMPNmd_FP650_D2 cell line (FIG. 10). The effect of the compounds was analyzed quantifying the number of fluorescent vesicles in the cytoplasm of the cells using the HCS Studio Cell Analysis Software.

Data set [3] concerns the target T1, recombinant human AS (α-synuclein) (Homo sapiens, UniProt P37840).
T1 construct: made in house
Description: Thioflavin T fluorescence assay of AS amyloid aggregation. It is filed as biochemical. The settings on record: 70 μM AS, 10 or 50 μM compound, 37° C., 600 rpm, 20 mM HEPES pH 7.4. As for the experimental part: In order to evaluate the effect of Pegasus (D9) on AS amyloid fibril formation, aggregation reactions were performed according to LeVine (LeVine H, 3rd. Thioflavine T interaction with synthetic Alzheimer's disease beta-amyloid peptides: detection of amyloid aggregation in solution. Protein Sci 1993; 2(3): 404-10; LeVine H, 3rd. Quantification of beta-sheet amyloid fibril structures with thioflavin T. Methods Enzymol 1999; 309: 274-84.). In brief, the formation of cross-ß structures were followed by adding Thioflavin T (ThT), a fluorescent cross-β reporter probe, to aliquots extracted from the incubation mixture at different times.
Expression and purification of recombinant human AS were performed as previously described (Hoyer W, Antony T, Cherny D, Heim G, Jovin T M, Subramaniam V. Dependence of AS aggregate morphology on solution conditions. J Mol Biol 2002; 322(2): 383-93), and purity was assessed by SDS-PAGE. […] The protein concentration was determined by absorbance at 275 nm using the extinction coefficient ε275=5600 cm^−1 M^−1. […]
For aggregation reactions, aliquots of monomeric AS (70 μM) in 20 mM HEPES, pH 7.4 were incubated in a Thermomixer comfort (Eppendorf) at 37° C. and 600 rpm in the absence or presence of 10 or 50 μM D9. Aggregation was monitored with a Horiba FluoroMax-4 spectrofluorometer using the ThT fluorescence assay.

Sequence of D2 dopamine receptor (P14416 whole entry): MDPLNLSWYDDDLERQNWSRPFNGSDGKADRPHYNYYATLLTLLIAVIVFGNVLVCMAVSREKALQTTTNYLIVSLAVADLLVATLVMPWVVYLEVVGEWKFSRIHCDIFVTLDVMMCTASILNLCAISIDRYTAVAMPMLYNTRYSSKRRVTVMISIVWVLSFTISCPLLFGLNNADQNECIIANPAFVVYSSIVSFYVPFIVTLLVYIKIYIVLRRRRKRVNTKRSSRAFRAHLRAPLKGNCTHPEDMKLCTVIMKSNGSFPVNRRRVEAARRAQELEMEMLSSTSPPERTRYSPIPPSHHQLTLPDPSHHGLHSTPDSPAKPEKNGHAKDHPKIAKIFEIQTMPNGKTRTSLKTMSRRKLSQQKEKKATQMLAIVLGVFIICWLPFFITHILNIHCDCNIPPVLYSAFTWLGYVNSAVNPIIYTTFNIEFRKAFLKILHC

With `C[C@H]1c2ccc(NC(=O)CCC(=O)NCCc3ccc(O)c(O)c3)c(O)c2C(=O)C2=C(O)[C@]3(O)C(=O)C(C(N)=O)=C(O)CC3[C@@H](O)C21` (stereo partly drawn) [Pegasus], the “Localization and distribution of Cytochrome C-tGFP (marker of apoptosis)” value in data set [1] was “no differences in localization and distribution of Cytochrome C-tGFP”. Further, in data set [2] (200 μM pretreatment 4 h, then LPS 10 μg/mL 24 h), the “IL-1β production after LPS stimulation” value is given as “reduced production of IL-1β”. Further, the “IL-1β release, compound alone” value in data set [2] (compound alone, no LPS) is reported as “did not lead to a significantly increase of IL-1β release”. In addition, the EC50 at D1 dopamine receptor was found to be 2.8 µM; at D2 dopamine receptor it was 11.3 µM. Besides, in data set [3], the “Inhibition of AS aggregation (ThT fluorescence)” value is “able to inhibit AS aggregation”.

One may read the EC50 as the concentration that produces a half-maximal response.

For the origin of these results see patent publication US12636371B2, “Chemically coupled transporter for low-hydrophobicity bioactive drugs into the central nervous system” (Skybio LLC, priority 2021, dated 2026).
